Measurements reported in the NIST ThermoML archive (doi:10.1021/je400655j).
Numbers after ± are expanded uncertainties.

Experiment: wn = mass fraction of the nth substance listed
Conditions: 101 kPa, Liquid; for mass density: Vibrating tube method; for viscosity: Concentric cylinders viscometry

CC(CC(C)(C)C)CP(=O)([O-])CC(C)CC(C)(C)C.CCCCCCCCCCCCCC[P+](CCCCCC)(CCCCCC)CCCCCC + O
Conditions	mass density, w2 = 0.05 [kg/m3]	mass density, w2 = 0.1 [kg/m3]	viscosity, w2 = 0.05 [mPa·s]	viscosity, w2 = 0.1 [mPa·s]
293 K	899.1 ± 4.1	907.3 ± 3.9	–	–
298 K	895.8 ± 4.1	903.9 ± 3.9	281 ± 19	174 ± 12
303 K	892.6 ± 4.1	900.7 ± 3.9	203 ± 14	137 ± 9
308 K	889.3 ± 4.1	897.4 ± 3.9	150 ± 10	103 ± 7
313 K	886.1 ± 4	894.1 ± 3.8	114 ± 8	78 ± 5
318 K	882.9 ± 4	890.7 ± 3.8	87 ± 6	59 ± 4
323 K	879.7 ± 4	887.4 ± 3.8	68 ± 4	47 ± 3
328 K	876.5 ± 3.9	884 ± 3.8	54 ± 4	37 ± 2
333 K	–	–	44 ± 3	31 ± 2
338 K	–	–	36 ± 2	25 ± 2
343 K	–	–	31 ± 2	23 ± 2

CC(=O)[O-].CCCCn1cc[n+](C)c1 [1-butyl-3-methylimidazolium acetate] + CC(CC(C)(C)C)CP(=O)([O-])CC(C)CC(C)(C)C.CCCCCCCCCCCCCC[P+](CCCCCC)(CCCCCC)CCCCCC
Conditions	mass density, w1 = 0.2 [kg/m3]	mass density, w1 = 0.5 [kg/m3]	viscosity, w1 = 0.2 [mPa·s]	viscosity, w1 = 0.5 [mPa·s]
293 K	908.8 ± 3.8	937.1 ± 3	–	–
298 K	905.6 ± 3.8	933.6 ± 3	160 ± 11	33 ± 2
303 K	902.4 ± 3.7	930.1 ± 3	123 ± 8	27 ± 2
308 K	899.3 ± 3.7	926.6 ± 2.9	97 ± 6	22 ± 2
313 K	896.1 ± 3.7	923.1 ± 2.9	77 ± 5	19 ± 1
318 K	893 ± 3.7	919.6 ± 2.9	63 ± 4	17 ± 1
323 K	889.9 ± 3.6	916.1 ± 2.9	52 ± 3	15 ± 1
328 K	886.7 ± 3.6	912.6 ± 2.9	44 ± 3	13 ± 1
333 K	883.5 ± 3.6	909.2 ± 2.8	37 ± 2	12 ± 1
338 K	880.3 ± 3.6	905.7 ± 2.8	32 ± 2	11 ± 1
343 K	877.1 ± 3.5	902.2 ± 2.8	28 ± 2	10 ± 1
